Key:
[1] = system: P. falciparum male gametocytes; assay: P. falciparum Dual Gamete Formation Assay (PfDGFA), male readout (exflagellation); type: cell-based, Plasmodium falciparum NF54; conditions: for Average inhibition male (%): average of replicates; for % inhibition male (individual replicates) R1: replicate R1; for % inhibition male (individual replicates) R3: replicate R3; for % inhibition male (individual replicates) R4: replicate R4; for Activity: hit = >50% inhibition in male or female readout in at least 3 replicates, 0 = no class assigned
Procedure, shortened: (§1)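 Mature NF54 gametocytes (day 14) were incubated with compound for 24 h at 37°C under 1% O2/3% CO2, then triggered with xanthurenic acid ookinete medium plus Cy3-anti-Pfs25. Exflagellation was imaged by brightfield; after a further 24 h at 28°C, Pfs25-positive female gametes were imaged by fluorescence and counted by automated image analysis.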

[2] = system: P. falciparum female gametocytes; assay: P. falciparum Dual Gamete Formation Assay (PfDGFA), female readout (Pfs25-positive female gametes); type: cell-based, Plasmodium falciparum NF54; conditions: for Average inhibition female (%): average of replicates; for % inhibition female (individual replicates) R1: replicate R1; for % inhibition female (individual replicates) R3: replicate R3; for % inhibition female (individual replicates) R4: replicate R4
Procedure, shortened: as §1

[3] = 2µM, 24h preincubation with gametocytes prior to induction of gametogenesis
[4] = 2µM, 24h preincubation, number of replicates with >50% inhibition in the male readout
[5] = 2µM, 24h preincubation, number of replicates with >50% inhibition in the female readout
[6] = PfDGFA at 2µM, 24h preincubation with gametocytes prior to induction of gametogenesis
[7] = PfDGFA at 2µM, 24h preincubation
[8] = 2µM, 24h preincubation with gametocytes
[9] = 2µM, 24h preincubation, hits selected on >50% inhibition in the male readout across replicates
[10] = 2µM, 24h preincubation, hits selected on >50% inhibition in the female readout across replicates

## COc1ccc2ccccc2c1CCCCN1CCN(CC(c2ccc(F)cc2)N2CCC(N3CCCC3)CC2)CC1.O=C(O)C(F)(F)F (centres unmarked) [TCMDC-135866]
[1]; [3]
  Average inhibition male (%): 26.2%
  % inhibition male (individual replicates) R1: 24.9%
  % inhibition male (individual replicates) R3: 0.4%
  % inhibition male (individual replicates) R4: 58.9%
[1]; [4]
  HitlevelM: 1
[2]; [3]
  Average inhibition female (%): 23.8%
  % inhibition female (individual replicates) R1: 27.0%
  % inhibition female (individual replicates) R3: 20.6%
  % inhibition female (individual replicates) R4: 10.9%
[2]; [5]
  HitlevelF: 0

## COc1ccc2ccccc2c1CCCCN1CCN(CC(c2ccc(F)cc2)N2CCC2)CC1.O=C(O)C(F)(F)F (centres unmarked) [TCMDC-135867]
[1]; [3]
  Average inhibition male (%): 8.0%
  % inhibition male (individual replicates) R1: -5.9%
  % inhibition male (individual replicates) R3: -10.3%
  % inhibition male (individual replicates) R4: 17.6%
[1]; [4]
  HitlevelM: 0
[2]; [3]
  Average inhibition female (%): 37.8%
  % inhibition female (individual replicates) R1: 32.4%
  % inhibition female (individual replicates) R3: 22.8%
  % inhibition female (individual replicates) R4: 37.2%
[2]; [5]
  HitlevelF: 1

## Cc1c(OC(C)C)nc2ccccc2c1C(=O)N[C@H](c1cccc(F)c1)C1CC1 [TCMDC-135994]
[1]; [6]
  % inhibition male (individual replicates) R1: 5.7%
  % inhibition male (individual replicates) R3: 14.1%
  % inhibition male (individual replicates) R4: 25.6%
[1]; [7]
  Average inhibition male (%): 14.7%
[2]; [6]
  % inhibition female (individual replicates) R1: 11.9%
  % inhibition female (individual replicates) R3: -14.7%
  % inhibition female (individual replicates) R4: 16.8%
[2]; [7]
  Average inhibition female (%): 1.3%

## CCn1c(-c2nonc2N)nc2c(-c3ccccc3)ncc(OCCCCNCCc3ncc[nH]3)c21.O=C(O)C(F)(F)F [TCMDC-136000]
[1]; [8]
  Average inhibition male (%): 92.8%
  % inhibition male (individual replicates) R1: 92.7%
  % inhibition male (individual replicates) R3: 86.1%
  % inhibition male (individual replicates) R4: 98.9%
[2]; [8]
  Average inhibition female (%): 36.6%
  % inhibition female (individual replicates) R1: 29.5%
  % inhibition female (individual replicates) R3: 30.1%
  % inhibition female (individual replicates) R4: 56.9%

## COc1ccc2ncc(F)c(CCN3C[C@H](CNCc4nc5c(cc4Cl)OCC(=O)N5)[C@H](O)C3)c2n1.Cl [TCMDC-136031]
[1]; [3]
  Average inhibition male (%): 6.8%
  % inhibition male (individual replicates) R1: 19.6%
  % inhibition male (individual replicates) R3: -8.5%
  % inhibition male (individual replicates) R4: 9.5%
[1]; [9]
  HitlevelM: 0
[1]; [7]
  Activity: 0
[2]; [3]
  Average inhibition female (%): 9.3%
  % inhibition female (individual replicates) R1: 13.9%
  % inhibition female (individual replicates) R3: -6.7%
  % inhibition female (individual replicates) R4: 27.7%
[2]; [10]
  HitlevelF: 0

## COc1ccc2nccc([C@H](O)CN3CCC(NCc4ccc5c(c4C)OCCO5)CC3)c2n1.Cl [TCMDC-136066]
[1]; [3]
  Average inhibition male (%): -9.6%
  % inhibition male (individual replicates) R1: -4.0%
  % inhibition male (individual replicates) R3: -34.1%
  % inhibition male (individual replicates) R4: 0.2%
[1]; [9]
  HitlevelM: 0
[1]; [7]
  Activity: 0
[2]; [3]
  Average inhibition female (%): 6.6%
  % inhibition female (individual replicates) R1: 21.2%
  % inhibition female (individual replicates) R3: -26.0%
  % inhibition female (individual replicates) R4: 9.8%
[2]; [10]
  HitlevelF: 0

## Cn1cc(CN2CCC(OC(c3ccccc3)c3ccc(Cl)cc3)CC2)cn1 (centres unmarked) [TCMDC-136165]
[1]; [3]
  Average inhibition male (%): 26.9%
  % inhibition male (individual replicates) R1: 21.0%
  % inhibition male (individual replicates) R3: 11.7%
  % inhibition male (individual replicates) R4: 55.6%
[1]; [4]
  HitlevelM: 1
[2]; [3]
  Average inhibition female (%): 27.9%
  % inhibition female (individual replicates) R1: 28.0%
  % inhibition female (individual replicates) R3: 20.7%
  % inhibition female (individual replicates) R4: 33.3%
[2]; [5]
  HitlevelF: 0

## CCn1c(-c2nonc2N)nc2c(-c3cccc(NC(=O)Nc4ccccc4OC)c3)ncc(OCCCN)c21.O=C(O)C(F)(F)F [TCMDC-136190]
[1]; [3]
  Average inhibition male (%): 38.6%
  % inhibition male (individual replicates) R1: 46.0%
  % inhibition male (individual replicates) R3: 15.9%
  % inhibition male (individual replicates) R4: 54.2%
[1]; [4]
  HitlevelM: 1
[2]; [3]
  Average inhibition female (%): 31.3%
  % inhibition female (individual replicates) R1: 29.0%
  % inhibition female (individual replicates) R3: 9.1%
  % inhibition female (individual replicates) R4: 20.1%
[2]; [5]
  HitlevelF: 1

## Cc1[nH]cc(Br)c(=O)c1-c1ccc(Oc2ccc(OC(F)(F)F)cc2)cc1 [TCMDC-136197]
[1]; [3]
  Average inhibition male (%): -14.5%
  % inhibition male (individual replicates) R1: -14.1%
  % inhibition male (individual replicates) R3: -25.2%
  % inhibition male (individual replicates) R4: -5.8%
[1]; [9]
  HitlevelM: 0
[1]; [7]
  Activity: 0
[2]; [3]
  Average inhibition female (%): 8.0%
  % inhibition female (individual replicates) R1: 22.6%
  % inhibition female (individual replicates) R3: 0.02%
  % inhibition female (individual replicates) R4: -5.7%
[2]; [10]
  HitlevelF: 0

## Cl.c1ccc2c(C3CCN(CCCCOc4ccc5c(c4)CCN(CC4CC4)CC5)CC3)c[nH]c2c1 [TCMDC-136244]
[1]; [3]
  Average inhibition male (%): 8.5%
  % inhibition male (individual replicates) R1: 7.6%
  % inhibition male (individual replicates) R3: -1.4%
  % inhibition male (individual replicates) R4: 14.2%
[1]; [4]
  HitlevelM: 0
[2]; [3]
  Average inhibition female (%): 24.9%
  % inhibition female (individual replicates) R1: 21.4%
  % inhibition female (individual replicates) R3: 5.1%
  % inhibition female (individual replicates) R4: 24.5%
[2]; [5]
  HitlevelF: 0

## Cc1ccc(-n2c(C)nc3c(Nc4ccc(-c5ccncc5)cc4)ncnc32)c(C)c1 [TCMDC-136289]
[1]; [3]
  Average inhibition male (%): 51.6%
  % inhibition male (individual replicates) R1: 92.5%
  % inhibition male (individual replicates) R4: -28.8%
[1]; [9]
  HitlevelM: 2
[1]; [7]
  Activity: 0
[2]; [3]
  Average inhibition female (%): 6.8%
  % inhibition female (individual replicates) R1: 7.7%
  % inhibition female (individual replicates) R3: 15.7%
  % inhibition female (individual replicates) R4: 3.5%
[2]; [10]
  HitlevelF: 0

## CN(C)CCCNCc1cn(S(=O)(=O)c2ccccc2Cl)c2ccccc12.Cl [TCMDC-136302]
[1]; [3]
  Average inhibition male (%): 39.6%
  % inhibition male (individual replicates) R1: 57.4%
  % inhibition male (individual replicates) R3: 42.5%
  % inhibition male (individual replicates) R4: 62.3%
[1]; [4]
  HitlevelM: 2
[2]; [3]
  Average inhibition female (%): 50.5%
  % inhibition female (individual replicates) R1: 52.5%
  % inhibition female (individual replicates) R3: 48.5%
  % inhibition female (individual replicates) R4: 54.4%
[2]; [5]
  HitlevelF: 2

## COc1ccc(CNC(=O)c2cnc3cc(-c4c(C)noc4C)ccc3c2Nc2ccccc2C(C)(C)C)cc1.Cl [TCMDC-136367]
[1]; [6]
  % inhibition male (individual replicates) R1: -0.3%
  % inhibition male (individual replicates) R4: -17.2%
[1]; [7]
  Average inhibition male (%): -9.5%
[2]; [6]
  % inhibition female (individual replicates) R1: -1.1%
  % inhibition female (individual replicates) R3: -0.6%
  % inhibition female (individual replicates) R4: 13.4%
[2]; [7]
  Average inhibition female (%): 2.7%

## COc1cc(Br)c(S(=O)(=O)n2cc(CN3CCC(N)CC3)c3cc(Cl)ccc32)cc1OC.O=C(O)C(F)(F)F [TCMDC-136384]
[1]; [3]
  Average inhibition male (%): 17.6%
  % inhibition male (individual replicates) R1: 5.7%
  % inhibition male (individual replicates) R3: -10.3%
  % inhibition male (individual replicates) R4: 29.6%
[1]; [9]
  HitlevelM: 0
[1]; [7]
  Activity: 0
[2]; [3]
  Average inhibition female (%): 13.1%
  % inhibition female (individual replicates) R1: 17.7%
  % inhibition female (individual replicates) R3: 22.3%
  % inhibition female (individual replicates) R4: -2.1%
[2]; [10]
  HitlevelF: 0
